Experimental data: PubChem BioAssay AID248 (DTP/NCI, 2004)
“And” between values parts separate entries of the source, which are not always exact repeats. Equal values may be shown once. Toxic doses and inconclusive results are not listed. Cut-off read from the data, not from the text of the source: active = T/C of 150% or more; inactive = T/C below 125%.

Tested on: L1210 leukemia ip in BDF1 mice, survival T/C
Test: NCI In Vivo Anticancer Drug Screen. Data for tumor model L1210 Leukemia (intraperitoneal) in B6D2F1 (BDF1) mice
Conditions: endpoint: mean survival time, higher = longer survival
In short: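 Transplantable tumor model; survival measured in treated vs vehicle control mice. Value = treated/control.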

[1] = dose: 100.0 mg/kg/injection, schedule: Q04DX003 (ip), vehicle: gum acacia
[2] = dose: 200.0 mg/kg/injection, schedule: Q04DX003 (ip), vehicle: gum acacia
[3] = dose: 400.0 mg/kg/injection, schedule: Q04DX003 (ip), vehicle: gum acacia
[4] = dose: 100.0 mg/kg/injection, schedule: Q04DX002 (ip), vehicle: Klucel (hydroxypropylcellulose) (HPC)
[5] = dose: 200.0 mg/kg/injection, schedule: Q04DX002 (ip), vehicle: Klucel (hydroxypropylcellulose) (HPC)
[6] = dose: 200.0 mg/kg/injection, schedule: Q01DX001 (ip), vehicle: saline
[7] = dose: 100.0 mg/kg/injection, schedule: Q01DX009 (ip), vehicle: Klucel (hydroxypropylcellulose) (HPC)
[8] = dose: 200.0 mg/kg/injection, schedule: Q01DX009 (ip), vehicle: Klucel (hydroxypropylcellulose) (HPC)
[9] = dose: 400.0 mg/kg/injection, schedule: Q01DX009 (ip), vehicle: Klucel (hydroxypropylcellulose) (HPC)
[10] = dose: 100.0 mg/kg/injection, schedule: Q04DX003 (ip), vehicle: saline
[11] = dose: 200.0 mg/kg/injection, schedule: Q04DX003 (ip), vehicle: saline
[12] = dose: 400.0 mg/kg/injection, schedule: Q04DX003 (ip), vehicle: saline
[13] = dose: 100.0 mg/kg/injection, schedule: Q01DX001 (ip), vehicle: saline
[14] = dose: 400.0 mg/kg/injection, schedule: Q01DX001 (ip), vehicle: saline

Measured: T/C

CCCCCCCCCCCCCCCCCC(=O)Nc1ccc(O)cc1
inactive: dose: 100.0 mg/kg/injection, schedule: Q01DX009 (ip), vehicle: gum acacia 87 % of control | [1] 88 % of control | dose: 200.0 mg/kg/injection, schedule: Q01DX009 (ip), vehicle: gum acacia 90 % of control | [2] 88 % of control | dose: 400.0 mg/kg/injection, schedule: Q01DX009 (ip), vehicle: gum acacia 90 % of control | [3] 90 % of control

O=C(CC(=O)Nc1ccc(C2=NCCCN2)cc1)Nc1ccc(C2=NCCCN2)cc1
inactive: dose: 6.25 mg/kg/injection, schedule: Q01DX Z (ip), vehicle: water 110 % of control | dose: 12.5 mg/kg/injection, schedule: Q01DX Z (ip), vehicle: water 113 % of control | dose: 25.0 mg/kg/injection, schedule: Q01DX Z (ip), vehicle: water 101 % of control | dose: 50.0 mg/kg/injection, schedule: Q01DX Z (ip), vehicle: water 104 % of control | dose: 62.5 mg/kg/injection, schedule: Q01DX Z (ip), vehicle: water 96 % of control | dose: 125.0 mg/kg/injection, schedule: Q01DX Z (ip), vehicle: water 102 % of control | dose: 250.0 mg/kg/injection, schedule: Q01DX Z (ip), vehicle: water 97 % of control

Nc1nc(CNc2ccc(Cl)cc2)nc(Nc2ccc(Cl)cc2)n1
inactive: dose: 100.0 mg/kg/injection, schedule: Q04DX003 (ip), vehicle: saline with Tween-80 89 % of control | dose: 200.0 mg/kg/injection, schedule: Q04DX003 (ip), vehicle: saline with Tween-80 95 % of control | dose: 400.0 mg/kg/injection, schedule: Q04DX003 (ip), vehicle: saline with Tween-80 95 % of control

CCP(=O)(CCP(=O)(c1ccccc1)c1ccccc1)c1ccccc1 (centres undefined)
inactive: dose: 25.0 mg/kg/injection, schedule: Q04DX002 (ip), vehicle: saline with Tween-80 97 % of control | dose: 50.0 mg/kg/injection, schedule: Q04DX002 (ip), vehicle: saline with Tween-80 103 % of control | dose: 100.0 mg/kg/injection, schedule: Q04DX002 (ip), vehicle: saline with Tween-80 106 % of control

C[CH2][Pb]([CH2]C)([CH2]C)[n]1ccnc1
inactive: [4] 95 % of control | [5] 95 % of control | dose: 400.0 mg/kg/injection, schedule: Q04DX002 (ip), vehicle: Klucel (hydroxypropylcellulose) (HPC) 100 % of control

CCCCCCCCCCCCCCOc1ccc(Sc2ccc([N+](=O)[O-])cc2)cc1
inactive: dose: 100.0 mg/kg/injection, schedule: Q01DX001 (ip), vehicle: Klucel (hydroxypropylcellulose) (HPC) 106 % of control | dose: 200.0 mg/kg/injection, schedule: Q01DX001 (ip), vehicle: Klucel (hydroxypropylcellulose) (HPC) 90 % of control | dose: 400.0 mg/kg/injection, schedule: Q01DX001 (ip), vehicle: Klucel (hydroxypropylcellulose) (HPC) 89 % of control

CC(C)CC1NC(C)(C)N(CC(=O)O)C1=O (centres undefined)
inactive: dose: 50.0 mg/kg/injection, schedule: Q01DX001 (ip), vehicle: saline 88 % of control | [6] 99 % of control

NC(=S)N/N=C\c1c(Cl)[nH]c2ccc(/C=N/NC(N)=S)cc12
inactive: dose: 50.0 mg/kg/injection, schedule: Q04DX002 (ip), vehicle: Klucel (hydroxypropylcellulose) (HPC) 97 % of control | [4] 90 % of control | [5] 94 % of control

CC(=O)[C@H]1CC[C@H]2[C@@H]3CCC4=CC(=O)[C@H](C)C[C@]4(C)[C@@]3(F)[C@@H](O)C[C@]12C
inactive: dose: 125.0 mg/kg/injection, schedule: Q01DX Z (sc), vehicle: steriod suspending solution 105 % of control | dose: 250.0 mg/kg/injection, schedule: Q01DX Z (sc), vehicle: steriod suspending solution 111 % of control | dose: 375.0 mg/kg/injection, schedule: Q01DX Z (sc), vehicle: steriod suspending solution 105 % of control | dose: 500.0 mg/kg/injection, schedule: Q01DX Z (sc), vehicle: steriod suspending solution 103 % of control

Cc1cccc2cc3ccc4ccccc4c3cc12
inactive: [7] 102 % of control | dose: 100.0 mg/kg/injection, schedule: Q04DX003 (ip), vehicle: other 101 % of control | [8] 95 % of control | dose: 200.0 mg/kg/injection, schedule: Q04DX003 (ip), vehicle: other 101 % of control | [9] 101 % of control | dose: 400.0 mg/kg/injection, schedule: Q04DX003 (ip), vehicle: other 95 % of control

O=NC12CCCCC1C(O)c1cc(Cl)cc(Cl)c1O2 (centres undefined)
inactive: dose: 100.0 mg/kg/injection, schedule: Q01DX009 (ip), vehicle: other 119 % of control | dose: 100.0 mg/kg/injection, schedule: Q04DX003 (ip), vehicle: Klucel (hydroxypropylcellulose) (HPC) 101 % of control | dose: 200.0 mg/kg/injection, schedule: Q01DX009 (ip), vehicle: other 95 % of control | dose: 200.0 mg/kg/injection, schedule: Q04DX003 (ip), vehicle: Klucel (hydroxypropylcellulose) (HPC) 95 % of control | dose: 400.0 mg/kg/injection, schedule: Q01DX009 (ip), vehicle: other 89 % of control | dose: 400.0 mg/kg/injection, schedule: Q04DX003 (ip), vehicle: Klucel (hydroxypropylcellulose) (HPC) 102 % of control

CN=C(N)N/N=C/C(C)=N/NC(N)=NC
inactive: dose: 15.0 mg/kg/injection, schedule: Q01DX Z (ip), vehicle: saline 96 % of control | dose: 30.0 mg/kg/injection, schedule: Q01DX Z (ip), vehicle: saline 106 % of control | dose: 60.0 mg/kg/injection, schedule: Q01DX Z (ip), vehicle: saline 104 % of control | dose: 120.0 mg/kg/injection, schedule: Q01DX Z (ip), vehicle: saline 95 % of control

CSc1c(Cl)c(C(Cl)(Cl)Cl)nc2ccccc12
inactive: dose: 12.5 mg/kg/injection, schedule: Q01DX009 (ip), vehicle: saline with Tween-80 93 % of control | dose: 25.0 mg/kg/injection, schedule: Q01DX009 (ip), vehicle: saline with Tween-80 93 % of control | dose: 50.0 mg/kg/injection, schedule: Q01DX009 (ip), vehicle: saline with Tween-80 103 % of control and 104 % of control

Nn1cnc2c(ncn2C2OC(CO)C(O)C2O)c1=O (centres undefined)
inactive: dose: 100.0 mg/kg/injection, schedule: Q01DX005 (ip), vehicle: saline 88 % of control | dose: 200.0 mg/kg/injection, schedule: Q01DX005 (ip), vehicle: saline 100 % of control

CC(=O)Nc1ccc(C(=O)O)cc1O
inactive: [10] 92 % of control | [11] 92 % of control | [12] 95 % of control

CC(C)CN(CCCCO)CC(C)C
inactive: dose: 100.0 mg/kg/injection, schedule: Q01DX009 (ip), vehicle: saline with Tween-80 95 % of control | [10] 100 % of control | dose: 200.0 mg/kg/injection, schedule: Q01DX009 (ip), vehicle: saline with Tween-80 103 % of control | [11] 100 % of control | [12] 100 % of control

C#CCCOC(=O)Nc1ccccc1
inactive: [7] 96 % of control | [8] 96 % of control | [9] 102 % of control

CCOP(=S)(S)OCC
inactive: [10] 97 % of control and 98 % of control | [11] 95 % of control and 93 % of control | [12] 98 % of control

COC(=O)NCCOS(C)(=O)=O
inactive: [13] 91 % of control | [6] 91 % of control | [14] 88 % of control

COc1ccc([N+](=O)[O-])cc1NC(=O)Oc1ccc(SC)cc1
inactive: dose: 50.0 mg/kg/injection, schedule: Q01DX009 (ip), vehicle: Klucel (hydroxypropylcellulose) (HPC) 111 % of control | [7] 92 % of control | [8] 100 % of control

O=C(O)C1CCC(C(=O)c2ccc([N+](=O)[O-])cc2)CC1 (centres undefined)
inactive: [1] 97 % of control | [2] 93 % of control | [3] 88 % of control

COc1ccc(CN2CCCN(Cc3ccc(OC)cc3)C2c2ccncc2C)cc1
inactive: dose: 100.0 mg/kg/injection, schedule: Q01DX001 (ip), vehicle: acetone 96 % of control | dose: 200.0 mg/kg/injection, schedule: Q01DX001 (ip), vehicle: acetone 105 % of control | dose: 400.0 mg/kg/injection, schedule: Q01DX001 (ip), vehicle: acetone 96 % of control

CC1NC(=S)N(c2ccc(S(=O)(=O)c3ccc(N4C(=O)C(C)NC4=S)cc3)cc2)C1=O (centres undefined)
inactive: [13] 102 % of control | [6] 98 % of control | [14] 98 % of control

CCN(CC)Cc1c(C)[nH]c2ccc(N(C)C)cc2c1=O
inactive: dose: 50.0 mg/kg/injection, schedule: Q01DX009 (ip), vehicle: saline 101 % of control | dose: 100.0 mg/kg/injection, schedule: Q01DX009 (ip), vehicle: saline 106 % of control | [10] 115 % of control | dose: 200.0 mg/kg/injection, schedule: Q01DX009 (ip), vehicle: saline 92 % of control | [11] 109 % of control
